Source: publication PMC7785802, “Therapeutic Efficacy of a Trichinella Spiralis Paramyosin-Derived Peptide Modified With a Membrane-Targeting Signal in Mice With Antigen-Induced Arthritis” (Frontiers in Microbiology, 2020)
Entries after “also recorded” stand apart in the source; their conditions may differ.

How the values were obtained:
mouse ATDC5 cells = experiment: Peptide binding to cell surface, flow cytometry; format: cell-based; conditions: 1 h room temperature, streptavidin-FITC; for binding to cell membrane of ATDC5 cells (flow cytometry) at 260 nmol: biotin-labeled peptide
Description: The mouse ATDC5 chondrogenic cell line is an important chondrocyte model that has been widely used in the study of chondrocyte proliferation and differentiation. This cell line was used to evaluate the membrane-binding ability of the modified peptide, as articular cartilage (which contains chondrocytes) is one of the main cellular components in the joint cavity. The cells were purchased from Guangzhou Jennio Biotech Co., Ltd. (Guangzhou, China) and maintained in Dulbecco's Modified Eagle Medium (DMEM, ThermoFisher, America) supplemented with 10% fetal bovine serum (FBS, Gibco, Australia) at 37°C in a humidified atmosphere with 5% CO2. The 5th−10th passages of the cells were used in the study.
To assess the binding ability of the modified peptide to the cell membrane, the three peptides were labeled with biotin at the C-terminus. Cultured mouse ATDC5 cells were washed with phosphate-buffered saline (PBS) and incubated with various concentrations of the control, original or modified peptides (65, 130, and 260 nmol, respectively) for 1 h at room temperature. After washing twice with PBS to remove the unbound peptides, streptavidin-fluorescein isothiocyanate (FITC; eBioscience, California, USA) was added and incubated for 0.5 h at room temperature. The cells were washed and resuspended in PBS and then the binding of the peptides to the cell membrane was assessed by flow cytometry (BD Biosciences, California, USA). To further assess the retention of peptides on the surface of cells, the mouse ATDC5 cells were cultured in a 12-well culture plate which contains cell slides on the bottom. They were washed with PBS on the next day and then blocked with normal goat serum for 30 min at room temperature before incubation with various concentrations of peptides (260 nmol, 540 nmol, and 1.08 mmol). The binding of the peptides to the cell membrane was then assessed by staining with streptavidin-FITC (eBioscience). After being stained, the cells that had adhered to the cell slides were mounted using ProLong Gold Antifade reagent (ZSGB-BIO, Beijing, china) containing 4′,6-diamidino-2-phenylindole (DAPI, ThermoFisher, America) dye to stain the cell nuclei. They were then analyzed by confocal laser scanning microscopy (Leica, Germany).
Figure 3 Modified peptide non-specifically bound to the cell surface. (A) Binding of peptides to the surface of mouse ATDC5 cells measured by flow cytometry. All experiments were performed three times and data are presented as mean ± SD. n = 5, ***p < 0.001, ns: not significant (p > 0.05). (B) Binding of various concentrations of biotin-labeled peptides on the surface of mouse ATDC5 cells assessed by confocal laser scanning microscopy. Arrowheads indicate the binding of the modified peptides on the surface of mouse ATDC5 cells.

human C9 = experiment: Zn2+-induced human C9 polymerization assay; format: biochemical; conditions: for inhibition of Zn2+-induced C9 polymerization at 5.24 μmol: peptide 5.24 μmol
Experimental: Certain concentrations of C9 can polymerize when induced by certain concentrations of Zn^2+. However, the polymerization can be suppressed when C9 binds to inhibitors. C9 polymerization assays were used to evaluate the inhibitory effect of the peptides on Zn^2+-induced polymerization of human C9. Briefly, 2 μg C9 was preincubated with the peptides in 20 mM Tris buffer (pH 7.2) at 37°C for 40 min and then 50 μM Zn^2+ was added to induce C9 polymerization at 37°C for 2 h. The samples were subjected to 2.5–15% polyacrylamide gel electrophoresis to assess the inhibitory effects of the peptides on human C9 polymerization; the gels were visualized by staining with Coomassie blue.
(§1) Figure 1 Modified peptide bound to human complement C9 and inhibited C9 polymerization-induced bio-function. (A) Microscale thermophoresis assay (NanoTemper) in which biomolecular interactions were quantitated by examining the motion of the molecules along a microscopic temperature gradient induced by an infrared laser. Changes in the molecular hydration shell, charge, or size are measured using a fluorescent probe (NT-647) bound covalently to the human C9. Binding of control, modified and original peptides to human C9 were studied. Data points indicate the differences in normalized fluorescence (%) generated by peptides binding to […], and curves indicate the calculated fits. […] Error bars represent the standard error of three independent measurements. […] Lane M: standard protein markers; lane 1: blank control (C9 without Zn^2+); lane 2: positive control (C9 with Zn^2+); lane 3: 5.24 μmol original peptide; lanes 4–6, 1.31, 2.62, and 5.24 μmol modified peptide, respectively; lane 7, 5.24 μmol control peptide. (C) Normal human serum (NHS)-induced complement-mediated hemolysis was inhibited by the modified and original peptides (2.62 and 5.24 μmol) compared to the control peptide. All experiments were performed three times and data are presented as mean ± SD. *p < 0.05, **p < 0.01.

[1] = tested on: complement in normal human serum (NHS); rabbit erythrocytes; experiment: NHS-induced complement-mediated hemolysis of rabbit erythrocytes (alternative pathway); format: cell-based; conditions: for inhibition of NHS-induced erythrocyte lysis, concentration dependence: NHS 1:12.5, peptide 1.31, 2.62, 5.24 μmol, Mg-EGTA, 37°C 40 min, then rabbit erythrocytes 1 × 10^8, 30 min 37°C, absorbance 412 nm; for inhibition of NHS-induced erythrocyte lysis, concentration dependence / inhibition of NHS-induced hemolysis compared to control peptide: three experiments; for inhibition of NHS-induced erythrocyte lysis at 5.24 μmol: peptide 5.24 μmol, NHS 1:12.5; for inhibition of NHS-induced hemolysis compared to control peptide: peptide 2.62 and 5.24 μmol, *p < 0.05, **p < 0.01
Experimental: Normal human serum (NHS) was collected from six healthy volunteers, and the donation procedure was approved by the Institutional Review Board (IRB) of Capital Medical University (approval number: 2016SY01). After venous blood was collected, it was clotted in serum separator tubes for 4 h at room temperature and then centrifuged at 1,000 g for 30 min to obtain the serum. The serum was divided into aliquots and stored at −80°C. To obtain normal mouse serum (NMS), blood was collected in the […] of mice under ether anesthesia and the serum was separated and stored as described above.
When rabbit erythrocytes are placed in xenogeneic serum (such as NHS or NMS), the alternative pathway of the complement system is activated, causing lysis of the rabbit erythrocytes. To evaluate the effects of the peptides on the complement activation-mediated erythrocyte lysis (involving the alternative complement pathway), NHS or NMS (1:12.5) was incubated with various concentrations of peptides (1.31, 2.62, and 5.24 μmol) in Mg-EGTA solution (5 mM MgCl2, 10 mM EGTA) at 37°C for 40 min before adding the mixture to freshly washed erythrocytes (1 × 10^8) in gelatin veronal-buffered saline (pH 7.4, containing 0.1% gelatin) for 30 min at 37°C. Lysis was stopped with cold Hanks' Balanced Salt Solution (HBSS^++) containing 10 mM ethylenediaminetetraacetic acid (EDTA). The samples were then centrifuged at 1,000 g for 10 min to obtain the supernatant, and the amount of released hemoglobin in the supernatant was determined by measuring the absorbance at 412 nm. The hemolytic activity relative to the water-induced lysis among the same number of erythrocytes was calculated.
as §1

[2] = 2 μg C9, 50 μM Zn2+, 37°C 2 h, PAGE, Coomassie blue

GKMSVMSVYKSVLS [control peptide, reference compound]
binding to cell membrane of ATDC5 cells (flow cytometry) at 260 nmol (mouse ATDC5 cells; 260 nmol): did not bind to the cell membrane
inhibition of Zn2+-induced C9 polymerization at 5.24 μmol (human C9; [2]): did not inhibit C9 polymerization
inhibition of NHS-induced erythrocyte lysis, concentration dependence [1]: no difference in the erythrocyte lysis among the three concentrations

Myr-GSSKSPSKKKKKKPG-ACP-VSMGKSLSSKVYVM [modified peptide, Ts-pmy-derived peptide modified with a membrane-targeting signal]
ATDC5 cells bound to peptide (mouse ATDC5 cells; C-terminally biotin-labeled peptide, 260 nmol, flow cytometry, n = 5): ~100%
binding to cell surface of ATDC5 cells (flow cytometry), concentration dependence (mouse ATDC5 cells; biotin-labeled peptide 65, 130, 260 nmol): bound to the cell surface of mouse ATDC5 cells in a dose-dependent manner
inhibition of Zn2+-induced C9 polymerization, concentration dependence (human C9; 2 μg C9, 20 mM Tris pH 7.2, 37°C 40 min preincubation, 50 μM Zn2+ 2 h, peptide 1.31, 2.62, 5.24 μmol, 2.5–15% PAGE): inhibited Zn^2+-induced C9 polymerization in a dose-dependent manner
inhibition of Zn2+-induced C9 polymerization at 2.62 μmol (human C9; peptide 2.62 μmol, 2 μg C9, 50 μM Zn2+, 37°C 2 h, PAGE, Coomassie blue): slightly
inhibition of Zn2+-induced C9 polymerization at 5.24 μmol (human C9; [2]): fully inhibited; also recorded: completely
inhibition of NHS-induced erythrocyte lysis, concentration dependence [1]: significantly inhibited in a dose-dependent manner
inhibition of NHS-induced erythrocyte lysis at 5.24 μmol [1]: greatest inhibition
inhibition of NHS-induced hemolysis compared to control peptide [1]: inhibited

VSMGKSLSSKVYVM [original peptide, tetradecapeptide derived from Trichinella spiralis paramyosin (Ts-pmy)]
binding to cell membrane of ATDC5 cells (flow cytometry) at 260 nmol (mouse ATDC5 cells; 260 nmol): did not bind to the cell membrane
inhibition of Zn2+-induced C9 polymerization at 5.24 μmol (human C9; [2]): fully inhibited
inhibition of NHS-induced erythrocyte lysis, concentration dependence [1]: significantly inhibited in a dose-dependent manner
inhibition of NHS-induced erythrocyte lysis at 5.24 μmol [1]: greatest inhibition
inhibition of NHS-induced hemolysis compared to control peptide [1]: inhibited
